Patent publication US8247211B2, “Glycopeptide antibiotics” (American Cyanamid Company, priority 2001, dated 2012)
Converted amounts (≈) assume the structure as drawn.

Legend:
Test in all cases: In vitro antibacterial evaluation: minimum inhibitory concentration (MIC), broth dilution method
Assay type in all cases: cell-based
Staphylococcus sp. = details: for MIC Staphylococcus aureus (ATCC 29213): strain ATCC 29213; for MIC Staphylococcus aureus (GC 1131): strain GC 1131; for MIC Staphylococcus aureus (GC 4541): strain GC 4541; for MIC Staphylococcus aureus (GC 4542): strain GC 4542; for MIC Staphylococcus aureus-SMITH (GC 4543): strain GC 4543; for MIC Staphylococcus aureus (GC 4544): strain GC 4544; for MIC Staphylococcus aureus (GC 4545): strain GC 4545; for MIC Staphylococcus haemolyticus (GC 4546): strain GC 4546; for MIC Coagulase Negative Staphylococcus (GC 4547): strain GC 4547; for MIC Coagulase Negative Staphylococcus (GC 4548): strain GC 4548; for MIC Coagulase Negative Staphylococcus (GC 4549): strain GC 4549; for MIC Coagulase Negative Staphylococcus (GC 4551): strain GC 4551; for MIC Coagulase Negative Staphylococcus (ID-3941): strain ID-3941
Procedure, shortened: (§1)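 Following NCCLS approved standard M7-A2, compounds are serially diluted from 64 to 0.06 μg/mL in Muller-Hinton II […] and inoculated at 5×10^5 CFU/mL; the MIC is the minimum concentration at which growth is inhibited.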

Escherichia coli = details: 18 hours at 35° C.
Procedure, shortened: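 Susceptibility determined by NCCLS-recommended broth dilution (M7-A2), Muller-Hinton II […]. Concentration span 64-0.06 μg/mL, inoculum 5×10^5 CFU/mL. Isolates include strains resistant to methicillin, penicillin and/or vancomycin.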

Streptococcus sp. = details: 18 hours at 35° C.
Procedure, shortened: as §1

Enterococcus sp. = details: 18 hours at 35° C.
Procedure, shortened: as §1

[1] = broth dilution, 18 hours at 35° C.
[2] = broth dilution, inoculum 5×10^5 CFU/mL

## CC(C)CC1OCC2OC(OC3C(CO)OC(Oc4ccc(CC5NC(=O)C(C(C)c6ccccc6)NC(=O)CNC(=O)C(CO)NC(=O)C(C(O)C6CNC(=N)N6C6OC(CO)C(O)C(O)C6O)NC(=O)C(C(O)C6CNC(=N)N6)NC5=O)cc4)C(O)C3O)C(O)C(O)C2O1 (stereo not drawn) [Example 107, Cyclo[glycyl-β-methylphenylalanyl-O-[4-O-[4,6-O-(3-methylbutylidene)hexopyranosyl]-hexopyranosyl]tyrosyl-3-(2-iminoimidazolidin-4-yl)seryl-3-(3-hexopyranosyl-2-iminoimidazolidin-4-yl)serylseryl]]
Staphylococcus sp.
  MIC Staphylococcus aureus (ATCC 29213): 1 µg/mL (≈ 0.733 µM)
  MIC Staphylococcus aureus (GC 1131): 2 µg/mL (≈ 1.47 µM)
  MIC Staphylococcus aureus (GC 4541): 2 µg/mL (≈ 1.47 µM)
  MIC Staphylococcus aureus (GC 4542): 1 µg/mL (≈ 0.733 µM)
  MIC Staphylococcus aureus (GC 4544): 2 µg/mL (≈ 1.47 µM)
  MIC Staphylococcus aureus (GC 4545): 1 µg/mL (≈ 0.733 µM)
  MIC Staphylococcus haemolyticus (GC 4546): 1 µg/mL (≈ 0.733 µM)
  MIC Coagulase Negative Staphylococcus (GC 4547): 1 µg/mL (≈ 0.733 µM)
  MIC Coagulase Negative Staphylococcus (GC 4548): 1 µg/mL (≈ 0.733 µM)
  MIC Coagulase Negative Staphylococcus (GC 4549): 1 µg/mL (≈ 0.733 µM)
  MIC Coagulase Negative Staphylococcus (GC 4551): 1 µg/mL (≈ 0.733 µM)
  MIC Coagulase Negative Staphylococcus (ID-3941): 1 µg/mL (≈ 0.733 µM)
Staphylococcus sp.; [1]
  MIC Staphylococcus aureus (ATCC 29213): 1 µg/mL (≈ 0.733 µM)
  MIC Staphylococcus aureus (GC 1131): 2 µg/mL (≈ 1.47 µM)
  MIC Staphylococcus aureus (GC 4541): 2 µg/mL (≈ 1.47 µM)
  MIC Staphylococcus aureus (GC 4542): 1 µg/mL (≈ 0.733 µM)
  MIC Staphylococcus aureus-SMITH (GC 4543): 1 µg/mL (≈ 0.733 µM)
  MIC Staphylococcus aureus (GC 4544): 2 µg/mL (≈ 1.47 µM)
  MIC Staphylococcus aureus (GC 4545): 1 µg/mL (≈ 0.733 µM)
  MIC Staphylococcus haemolyticus (GC 4546): 1 µg/mL (≈ 0.733 µM)
  MIC Coagulase Negative Staphylococcus (GC 4547): 1 µg/mL (≈ 0.733 µM)
  MIC Coagulase Negative Staphylococcus (GC 4548): 1 µg/mL (≈ 0.733 µM)
  MIC Coagulase Negative Staphylococcus (GC 4549): 1 µg/mL (≈ 0.733 µM)
  MIC Coagulase Negative Staphylococcus (GC 4551): 1 µg/mL (≈ 0.733 µM)
  MIC Coagulase Negative Staphylococcus (ID-3941): 1 µg/mL (≈ 0.733 µM)
Staphylococcus sp.; 18 hours at 35° C.
  MIC Staphylococcus aureus-SMITH (GC 4543): 1 µg/mL (≈ 0.733 µM)
Escherichia coli; 5×10^5 CFU/mL
  MIC Escherichia coli (ATCC 25922): 64 µg/mL (≈ 46.9 µM)
Streptococcus sp.; broth dilution, 5×10^5 CFU/mL
  MIC Streptococcus agalactiae (GC 4564): 0.25 µg/mL (≈ 0.183 µM)
  MIC Streptococcus pneumoniae (GC 4565): <0.12 µg/mL
  MIC Streptococcus pyogenes (ID-3187): 0.25 µg/mL (≈ 0.183 µM)
Enterococcus sp.; broth dilution, 5×10^5 CFU/mL
  MIC Enterococccus avium (GC 4558): 8 µg/mL (≈ 5.87 µM)
  MIC Enterococccus faecalis (ATCC 29212): 4 µg/mL (≈ 2.93 µM)
  MIC Enterococccus faecalis (GC 4552): 4 µg/mL (≈ 2.93 µM)
  MIC Enterococccus faecalis (GC 4553): 8 µg/mL (≈ 5.87 µM)
  MIC Enterococccus faecalis (GC 4554): 4 µg/mL (≈ 2.93 µM)
  MIC Enterococccus faecium (GC 2243): 8 µg/mL (≈ 5.87 µM)
  MIC Enterococccus faecium (GC 4556): 4 µg/mL (≈ 2.93 µM)
  MIC Enterococccus faecium (GC 4557): 2 µg/mL (≈ 1.47 µM)
  MIC Enterococcus faecalis (GC 2242): 4 µg/mL (≈ 2.93 µM)

## Cc1ccc(Oc2cccc(C3OCC4OC(OC5C(CO)OC(Oc6ccc(CC7NC(=O)C(C(C)c8ccccc8)NC(=O)CNC(=O)C(CO)NC(=O)C(C(O)C8CNC(=N)N8C8OC(CO)C(O)C(O)C8O)NC(=O)C(C(O)C8CNC(=N)N8)NC7=O)cc6I)C(O)C5O)C(O)C(O)C4O3)c2)cc1 (stereo not shown) [Example 197]
Staphylococcus sp.
  MIC Staphylococcus aureus (ATCC 29213): 32 µg/mL (≈ 19.8 µM)
  MIC Staphylococcus aureus (GC 1131): 16 µg/mL (≈ 9.9 µM)
  MIC Staphylococcus aureus (GC 4541): 16 µg/mL (≈ 9.9 µM)
  MIC Staphylococcus aureus (GC 4542): 64 µg/mL (≈ 39.6 µM)
  MIC Staphylococcus aureus-SMITH (GC 4543): 16 µg/mL (≈ 9.9 µM)
  MIC Staphylococcus aureus (GC 4544): 32 µg/mL (≈ 19.8 µM)
  MIC Staphylococcus aureus (GC 4545): 32 µg/mL (≈ 19.8 µM)
  MIC Staphylococcus haemolyticus (GC 4546): 32 µg/mL (≈ 19.8 µM)
  MIC Coagulase Negative Staphylococcus (GC 4547): 32 µg/mL (≈ 19.8 µM)
  MIC Coagulase Negative Staphylococcus (GC 4548): 8 µg/mL (≈ 4.95 µM)
  MIC Coagulase Negative Staphylococcus (GC 4549): 8 µg/mL (≈ 4.95 µM)
  MIC Coagulase Negative Staphylococcus (GC 4551): 16 µg/mL (≈ 9.9 µM)
Staphylococcus sp.; strain GC 3051
  MIC Staphylococcus aureus (GC 3051): 64 µg/mL (≈ 39.6 µM)
Staphylococcus sp.; strain GC 3053
  MIC Staphylococcus aureus (GC 3053): 64 µg/mL (≈ 39.6 µM)
Staphylococcus sp.; strain GC 6257
  MIC Coagulase Negative Staphylococcus (GC 6257): 4 µg/mL (≈ 2.48 µM)
Escherichia coli; Escherichia coli (ATCC 25922)
  MIC Escherichia coli (ATCC 25922): 32 µg/mL (≈ 19.8 µM)
Escherichia coli; Escherichia coli (GC 4559)
  MIC Escherichia coli (GC 4559): 64 µg/mL (≈ 39.6 µM)
Escherichia coli; Escherichia coli (GC 4560)
  MIC Escherichia coli (GC 4560): 16 µg/mL (≈ 9.9 µM)
Streptococcus sp.; Streptococcus agalactiae (GC 4564)
  MIC Streptococcus agalactiae (GC 4564): 16 µg/mL (≈ 9.9 µM)
Streptococcus sp.; Streptococcus pneumoniae (ATCC 6301)
  MIC Streptococcus pneumoniae (ATCC 6301): 4 µg/mL (≈ 2.48 µM)
Streptococcus sp.; Streptococcus pneumoniae (GC 1894)
  MIC Streptococcus pneumoniae (GC 1894): 8 µg/mL (≈ 4.95 µM)
Streptococcus sp.; Streptococcus pneumoniae (GC 4565)
  MIC Streptococcus pneumoniae (GC 4565): 8 µg/mL (≈ 4.95 µM)
Streptococcus sp.; Streptococcus pyogenes (GC 4563)
  MIC Streptococcus pyogenes (GC 4563): 16 µg/mL (≈ 9.9 µM)
Streptococcus sp.; [2]
  MIC Streptococcus agalactiae (GC 4564): 16 µg/mL (≈ 9.9 µM)
  MIC Streptococcus pneumoniae (ATCC 6301): 4 µg/mL (≈ 2.48 µM)
  MIC Streptococcus pneumoniae (GC 1894): 8 µg/mL (≈ 4.95 µM)
  MIC Streptococcus pneumoniae (GC 4565): 8 µg/mL (≈ 4.95 µM)
  MIC Streptococcus pyogenes (GC 4563): 16 µg/mL (≈ 9.9 µM)
Enterococcus sp.; Enterococcus avium (GC 4558)
  MIC Enterococcus avium (GC 4558): 16 µg/mL (≈ 9.9 µM)
Enterococcus sp.; Enterococcus faecalis (ATCC 29212)
  MIC Enterococcus faecalis (ATCC 29212): >64 µg/mL
Enterococcus sp.; Enterococcus faecalis (GC 2242)
  MIC Enterococcus faecalis (GC 2242): >64 µg/mL
Enterococcus sp.; Enterococcus faecalis (GC 2691)
  MIC Enterococcus faecalis (GC 2691): >64 µg/mL
Enterococcus sp.; Enterococcus faecalis (GC 3059)
  MIC Enterococcus faecalis (GC 3059): >64 µg/mL
Enterococcus sp.; Enterococcus faecalis (GC 4552)
  MIC Enterococcus faecalis (GC 4552): >64 µg/mL
Enterococcus sp.; Enterococcus faecalis (GC 4553)
  MIC Enterococcus faecalis (GC 4553): 64 µg/mL (≈ 39.6 µM)
Enterococcus sp.; Enterococcus faecalis (GC 4554)
  MIC Enterococcus faecalis (GC 4554): >64 µg/mL
Enterococcus sp.; Enterococcus faecalis (GC 6189)
  MIC Enterococcus faecalis (GC 6189): 64 µg/mL (≈ 39.6 µM)
Enterococcus sp.; Enterococcus faecium (GC 2243)
  MIC Enterococcus faecium (GC 2243): 64 µg/mL (≈ 39.6 µM)
Enterococcus sp.; Enterococcus faecium (GC 4556)
  MIC Enterococcus faecium (GC 4556): >64 µg/mL
Enterococcus sp.; Enterococcus faecium (GC 4557)
  MIC Enterococcus faecium (GC 4557): 8 µg/mL (≈ 4.95 µM)
Enterococcus sp.; [2]
  MIC Enterococcus avium (GC 4558): 16 µg/mL (≈ 9.9 µM)
  MIC Enterococcus faecalis (ATCC 29212): >64 µg/mL
  MIC Enterococcus faecalis (GC 2242): >64 µg/mL
  MIC Enterococcus faecalis (GC 2691): >64 µg/mL
  MIC Enterococcus faecalis (GC 3059): >64 µg/mL
  MIC Enterococcus faecalis (GC 4552): >64 µg/mL
  MIC Enterococcus faecalis (GC 4553): 64 µg/mL (≈ 39.6 µM)
  MIC Enterococcus faecalis (GC 4554): >64 µg/mL
  MIC Enterococcus faecalis (GC 6189): 64 µg/mL (≈ 39.6 µM)
  MIC Enterococcus faecium (GC 2243): 64 µg/mL (≈ 39.6 µM)
  MIC Enterococcus faecium (GC 4556): >64 µg/mL
  MIC Enterococcus faecium (GC 4557): 8 µg/mL (≈ 4.95 µM)
